# In patent US20120029190A1, “COMPOUNDS FOR TREATING DISORDERS MEDIATED BY METABOTROPIC GLUTAMATE RECEPTOR 5, AND METHODS OF USE THEREOF” (priority 2009, published 2012):
# Biological target: T1, human recombinant mGluR5 receptor (Homo sapiens, UniProt P41594)
# T1 construct: expressed in transfected cells; expression induced with doxycycline
# Assay: mGluR5 in vitro functional assay (aequorin cell line, inhibition of glutamate EC80 response)
# Format: cell-based
# Conditions: Table 2; aequorin cell line expressing human mGluR5, reference agonist glutamate at EC80; obtained in duplicate; read-out: IC50
# Outline: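 Doxycycline-induced (600 ng/mL, 18 h) aequorin cells loaded with coelenterazine h ≥4 h at room temperature; compound preincubated 3 min before glutamate at EC80. Luminescence recorded, normalized to digitonin or 20 mM ATP wells; % inhibition of EC80 response fitted by sigmoidal nonlinear regression.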
# T1 sequence (P41594 21-1212): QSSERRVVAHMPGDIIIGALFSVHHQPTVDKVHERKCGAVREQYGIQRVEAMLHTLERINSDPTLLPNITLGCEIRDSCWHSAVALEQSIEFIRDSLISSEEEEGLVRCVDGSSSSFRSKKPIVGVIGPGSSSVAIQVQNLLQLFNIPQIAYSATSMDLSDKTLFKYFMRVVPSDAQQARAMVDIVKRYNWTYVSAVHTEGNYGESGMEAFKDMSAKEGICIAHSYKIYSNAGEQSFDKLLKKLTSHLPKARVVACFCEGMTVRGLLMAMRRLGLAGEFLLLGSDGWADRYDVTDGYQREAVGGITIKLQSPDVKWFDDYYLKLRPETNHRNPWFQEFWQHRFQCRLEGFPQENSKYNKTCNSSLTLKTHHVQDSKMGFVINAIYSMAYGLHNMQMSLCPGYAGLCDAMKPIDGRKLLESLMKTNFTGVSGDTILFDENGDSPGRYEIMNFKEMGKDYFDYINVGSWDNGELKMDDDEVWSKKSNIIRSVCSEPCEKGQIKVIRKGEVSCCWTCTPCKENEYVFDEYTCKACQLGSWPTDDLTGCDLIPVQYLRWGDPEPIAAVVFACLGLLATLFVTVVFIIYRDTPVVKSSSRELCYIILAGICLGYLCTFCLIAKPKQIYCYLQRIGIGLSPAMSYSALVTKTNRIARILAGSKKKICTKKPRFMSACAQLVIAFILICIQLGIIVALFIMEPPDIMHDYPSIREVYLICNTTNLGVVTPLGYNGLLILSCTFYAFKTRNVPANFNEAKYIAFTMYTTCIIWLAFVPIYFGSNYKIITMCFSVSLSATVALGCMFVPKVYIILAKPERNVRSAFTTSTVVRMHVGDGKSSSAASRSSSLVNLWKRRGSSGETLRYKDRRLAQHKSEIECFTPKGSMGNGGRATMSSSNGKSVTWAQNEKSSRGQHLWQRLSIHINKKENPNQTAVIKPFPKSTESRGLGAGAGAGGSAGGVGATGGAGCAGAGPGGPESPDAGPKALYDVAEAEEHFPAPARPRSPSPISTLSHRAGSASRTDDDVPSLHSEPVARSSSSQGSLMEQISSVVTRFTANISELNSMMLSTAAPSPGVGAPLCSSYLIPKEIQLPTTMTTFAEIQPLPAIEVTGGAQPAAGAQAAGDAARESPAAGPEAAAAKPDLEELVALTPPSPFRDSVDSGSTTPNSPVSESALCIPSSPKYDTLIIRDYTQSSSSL
row,Compound,IC50
1,"Fc1ccccc1N1CCc2oc(-c3ccccn3)nc2C1 [Compound 166, 5-(2-Fluorophenyl)-2-(pyridin-2-yl)-4,5,6,7-tetrahydrooxazolo[4,5-c]pyridine]",< 1000 nM
2,"Fc1ccc(-c2nc3c(o2)CCN(c2ccccc2Cl)C3)nc1 [Compound 167, 5-(2-Chlorophenyl)-2-(5-fluoropyridin-2-yl)-4,5,6,7-tetrahydrooxazolo[4,5-c]pyridine]",< 1000 nM
3,"Clc1ccccc1N1CCc2oc(-c3ccncn3)nc2C1 [Compound 168, 5-(2-Chlorophenyl)-2-(pyrimidin-4-yl)-4,5,6,7-tetrahydrooxazolo[4,5-c]pyridine]",< 10000 nM
4,"Fc1ccc(F)c(N2CCc3oc(-c4ccccn4)nc3C2)c1 [Compound 169, 5-(2,5-Difluorophenyl)-2-(pyridin-2-yl)-4,5,6,7-tetrahydrooxazolo[4,5-c]pyridine]",< 1000 nM
5,"Clc1cccc(N2CCc3oc(-c4ccccn4)nc3C2)c1Cl [Compound 170, 5-(2,3-Dichlorophenyl)-2-(pyridin-2-yl)-4,5,6,7-tetrahydrooxazolo[4,5-c]pyridine]",< 1000 nM
6,"Fc1ccc(N2CCc3oc(-c4ccccn4)nc3C2)c(Cl)c1 [Compound 171, 5-(2-Chloro-4-fluorophenyl)-2-(pyridin-2-yl)-4,5,6,7-tetrahydrooxazolo[4,5-c]pyridine]",< 1000 nM
7,"Cc1nc(-c2nc3c(o2)CCN(c2ccccc2Cl)C3)cs1 [Compound 172, 5-(2-Chlorophenyl)-2-(2-methylthiazol-4-yl)-4,5,6,7-tetrahydrooxazolo[4,5-c]pyridine]",< 1000 nM
8,"Clc1ccc(Cl)c(N2CCc3oc(-c4ccccn4)nc3C2)c1 [Compound 173, 5-(2,5-Dichlorophenyl)-2-(pyridin-2-yl)-4,5,6,7-tetrahydrooxazolo[4,5-c]pyridine]",< 1000 nM
9,"Clc1cccc(Cl)c1N1CCc2oc(-c3ccccn3)nc2C1 [Compound 174, 5-(2,6-Dichlorophenyl)-2-(pyridin-2-yl)-4,5,6,7-tetrahydrooxazolo[4,5-c]pyridine]",< 1000 nM
10,"Fc1ccc(Cl)c(N2CCc3oc(-c4ccccn4)nc3C2)c1 [Compound 175, 5-(2-Chloro-5-fluorophenyl)-2-(pyridin-2-yl)-4,5,6,7-tetrahydrooxazolo[4,5-c]pyridine]",< 1000 nM
11,"N#Cc1ccc(F)cc1N1CCc2oc(-c3ccccn3)nc2C1 [Compound 176, 4-Fluoro-2-(2-(pyridin-2-yl)-6,7-dihydrooxazolo[4,5-c]pyridin-5(4H)-yl)benzonitrile]",< 1000 nM
12,"COc1ccccc1N1CCc2oc(-c3ccccn3)nc2C1 [Compound 177, 5-(2-Methoxyphenyl)-2-(pyridin-2-yl)-4,5,6,7-tetrahydrooxazolo[4,5-c]pyridine]",< 1000 nM
13,"Oc1ccccc1N1CCc2oc(-c3ccccn3)nc2C1 [Compound 178, 2-(2-(Pyridin-2-yl)-6,7-dihydrooxazolo[4,5-c]pyridin-5(4H)-yl)phenol]",< 1000 nM
14,"COc1ccc(F)cc1N1CCc2oc(-c3ccccn3)nc2C1 [Compound 179, 5-(5-Fluoro-2-methoxyphenyl)-2-(pyridin-2-yl)-4,5,6,7-tetrahydrooxazolo[4,5-c]pyridine]",< 1000 nM
15,"N#Cc1ccccc1N1CCc2oc(-c3ccccn3)nc2C1 [Compound 180, 2-(2-(Pyridin-2-yl)-6,7-dihydrooxazolo[4,5-c]pyridin-5(4H)-yl)benzonitrile]",< 1000 nM
16,"c1ccc(-c2nc3c(o2)CCN(c2cccc4ccccc24)C3)nc1 [Compound 181, 5-(Naphthalen-1-yl)-2-(pyridin-2-yl)-4,5,6,7-tetrahydrooxazolo[4,5-c]pyridine]",< 1000 nM

row,Compound,IC50
1,"FC(F)(F)c1ccccc1N1CCc2oc(-c3ccccn3)nc2C1 [Compound 182, 2-(Pyridin-2-yl)-5-(2-(trifluoromethyl)phenyl)-4,5,6,7-tetrahydrooxazolo[4,5-c]pyridine]",< 1000 nM
2,"Clc1cnccc1N1CCc2oc(-c3ccccn3)nc2C1 [Compound 184, 5-(3-Chloropyridin-4-yl)-2-(pyridin-2-yl)-4,5,6,7-tetrahydrooxazolo[4,5-c]pyridine]",< 10000 nM
3,"N#Cc1ccc(F)c(N2CCc3oc(-c4ccccn4)nc3C2)c1 [Compound 185, 4-Fluoro-3-(2-(pyridin-2-yl)-6,7-dihydrooxazolo[4,5-c]pyridin-5(4H)-yl)benzonitrile]",< 1000 nM
4,"N#Cc1cc(Cl)cc(N2CCc3oc(-c4ccccn4)nc3C2)c1 [Compound 186, 3-Chloro-5-(2-(pyridin-2-yl)-6,7-dihydrooxazolo[4,5-c]pyridin-5(4H)-yl)benzonitrile]",< 1000 nM
5,"Clc1cccnc1N1CCc2oc(-c3ccccn3)nc2C1 [Compound 187, 5-(3-Chloropyridin-2-yl)-2-(pyridin-2-yl)-4,5,6,7-tetrahydrooxazolo[4,5-c]pyridine]",< 1000 nM
6,"Fc1cc(F)c(F)c(N2CCc3oc(-c4ccccn4)nc3C2)c1 [Compound 188, 2-(Pyridin-2-yl)-5-(2,3,5-trifluorophenyl)-4,5,6,7-tetrahydrooxazolo[4,5-c]pyridine]",< 1000 nM
7,"N#Cc1c(F)cccc1N1CCc2oc(-c3ccccn3)nc2C1 [Compound 189, 2-Fluoro-6-(2-(pyridin-2-yl)-6,7-dihydrooxazolo[4,5-c]pyridin-5(4H)-yl)benzonitrile]",< 1000 nM
8,"O=C(CN1CCc2oc(-c3cccc(Cl)c3)nc2C1)c1ccc(F)cc1 [Compound 190, 2-(2-(3-Chlorophenyl)-6,7-dihydrooxazolo[4,5-c]pyridin-5(4H)-yl)-1-(4-fluorophenyl)ethanone]",< 10000 nM
9,"O=C(CN1CCc2oc(-c3cccc(F)c3)nc2C1)c1ccc(F)cc1 [Compound 191, 1-(4-Fluorophenyl)-2-(2-(3-fluorophenyl)-6,7-dihydrooxazolo[4,5-c]pyridin-5(4H)-yl)ethanone]",> 10000 nM
10,"O=C(CN1CCc2oc(-c3ccccn3)nc2C1)c1ccc(F)cc1 [Compound 192, 1-(4-Fluorophenyl)-2-(2-(pyridin-2-yl)-6,7-dihydrooxazolo[4,5-c]pyridin-5(4H)-yl)ethanone]",> 10000 nM
11,"c1ccc(-c2nc3c(o2)CCN(c2ccccc2N2CCOCC2)C3)nc1 [Compound 193, 5-(2-Morpholinophenyl)-2-(pyridin-2-yl)-4,5,6,7-tetrahydrooxazolo[4,5-c]pyridine]",< 1000 nM
12,"c1ccc(-c2nc3c(o2)CCN(c2cccc4[nH]ccc24)C3)nc1 [Compound 194, 5-(1H-Indol-4-yl)-2-(pyridin-2-yl)-4,5,6,7-tetrahydrooxazolo[4,5-c]pyridine]",< 1000 nM
13,"CC(C)(c1ccccn1)c1nc2c(o1)CCN(c1cc(F)cc(C#N)c1)C2 [Compound 195, 3-Fluoro-5-(2-(2-(pyridin-2-yl)propan-2-yl)-6,7-dihydrooxazolo[4,5-c]pyridin-5(4H)-yl)benzonitrile]",> 10000 nM
14,"CC1(C)CN(c2ccc(F)cc2Cl)Cc2nc(-c3ccccn3)oc21 [Compound 196, 5-(2-Chloro-4-fluorophenyl)-7,7-dimethyl-2-(pyridin-2-yl)-4,5,6,7-tetrahydrooxazolo[4,5-c]pyridine]",> 10000 nM
15,"Fc1ccc(N2CCCc3oc(-c4ccccn4)nc3C2)cc1F [Compound 197, 5-(3,4-Difluorophenyl)-2-(pyridin-2-yl)-5,6,7,8-tetrahydro-4H-oxazolo[4,5-c]azepine]",< 1000 nM
